The text below walks through data of the METLIN SMRT retention time set (Domingo-Almenara et al. 2019).

The nature of this data set: gradient 5% acetonitrile 3 min, to 50% in 2 min, to 85% in 15 min, held 3 min, 100 µL/min. Particulars: column: Zorbax Extend-C18 2.1 x 50 mm; eluents: water / acetonitrile, 0.1% formic acid. In a few lines: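 Standards, all pure, were combined into mixtures of ~100 molecules and run at 100 μL/min on a Zorbax Extend-C18 column (2.1 × 50 mm, 1.8 μm) with water and acetonitrile, each containing 0.1% formic acid. A coupled quadrupole time-of-flight mass spectrometer operated in positive and negative ionization mode. Retention time values come from computationally picked adduct peaks, each inspected manually.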
`Cc1ccc(NC(=O)c2cc(C)n3nc(C)cc3n2)c(C)c1`: the RP-LC retention time was 1140 s. The figure for `CCc1noc(NC(C)=O)c1-c1ccc(C)c(S(=O)(=O)Nc2ccc(OC)c(Cl)c2)c1` is 1300 s; for `O=c1ccn(-c2cccc(F)c2)nc1-c1nc(-c2ccccc2)no1` it is 851 s. The figure for `CCc1c(C(=O)NNC(=O)[C@@H](O)c2cc(F)cc(F)c2)ccc(O)c1C` is 807 s. `COc1ccc(CNC(=O)Cn2c(=O)c3cc(C4CC4)nn3c3ncccc32)cc1` showed an RP-LC retention time of 742 s. The same measure for `CN1CCN(CCNC(=O)C2CCN(Cc3cn(C)c4ccc(Cl)cc34)CC2)CC1`: 570 s; for `CCN(CC)CCNc1ncnc2onc(-c3cc(F)cc(F)c3)c12`: 651 s; for `CSc1ccc(-c2nc3cccc(C)n3c2Nc2ccc3c(c2)OCCO3)cc1`: 719 s. The figure for `CCOC(=O)c1cc2n(n1)CC(C)(C(=O)NC1CCCC1)N(c1cccc(F)c1)C2=O` (stereo not drawn) is 862 s; for `O=C(NCc1ccc(F)c(Cl)c1)c1csc(C(=O)NC2CCCC2)n1` it is 976 s. The figure for `CCOc1ccc(S(=O)(=O)N2CCCC(C(=O)NCCOC)C2)cc1C` (stereo not drawn) is 769 s. Consider `Cc1cc(C)c(S(=O)(=O)NCCn2c(C)cnc2C2CCC2)cc1C`, for which the RP-LC retention time amounted to 696 s. The figure for `O=C(Cc1csc2nc(-c3ccccc3)cn12)Nc1cccc(Br)c1` is 906 s; for `NC(=O)C1CCN(C(=O)c2c[nH]c3c(C(F)(F)F)cccc3c2=O)CC1` it is 572 s. The figure for `O=C(NCc1ccccc1)NC1CCN(C(=O)N2C[C@H]3C[C@H](C2)[C@H]2CCCC(=O)N2C3)CC1` is 660 s; for `Cc1nc2sccn2c(=O)c1NC(=O)Nc1ccc(C(C)C)cc1` it is 704 s. The figure for `COc1cccc2sc(NC(=O)c3coc4ccccc4c3=O)nc12` is 921 s; for `CCCc1ccc(S(=O)(=O)N2CCC(C(=O)NCCc3csc(-c4ccccc4)n3)CC2)cc1` it is 1100 s; for `O=C(NCc1cccs1)c1cccnc1N1CCNC(c2ccccc2)C1` (stereo not drawn) it is 612 s. In the case of `COc1ccc(OC)c(S(=O)(=O)N2CCc3c(c(-c4nnc(-c5ccc(F)cc5)o4)nn3C)C2)c1`, the RP-LC retention time stood at 900 s. The figure for `Cc1nc(-c2cc(S(=O)(=O)Nc3cccc(Br)c3)c(C)s2)cs1` is 1050 s; for `CCOc1ccccc1NC(=O)N1CCN(c2ccc(=O)n(-c3ccccc3)n2)CC1` it is 851 s. The figure for `O=C1CCCC1C(=O)Nc1ccc2ccccc2c1` (stereo not drawn) is 884 s.

Turning to `COC(=O)c1ccc2c(=O)n(-c3cc(C)cc(C)c3)c(N3CCN(C(C)C)CC3)nc2c1`, the RP-LC retention time was determined as 695 s. The same measure for `CN1C(=O)COc2ccc(-c3csc(NC(=O)COc4ccc(Cl)cc4)n3)cc21`: 1010 s; for `O=C(C1CCCN(c2ccc3cc(S(=O)(=O)N4CCCC4)ccc3n2)C1)N1CCc2ccccc21` (stereo not drawn): 884 s. The same measure for `CN1C(=O)c2cccn2CC1CNS(=O)(=O)c1cccc2nsnc12` (stereo not drawn): 680 s. The figure for `COc1cc(NC(=O)Cn2c(N3CCc4ccccc4C3)nc(C)cc2=O)cc(OC)c1OC` is 721 s; for `Fc1ccccc1-c1nc2ccccc2[nH]1` it is 592 s; for `C=C[C@H]1CN2CC[C@H]1C[C@@H]2[C@@H](O)c1ccnc2ccc(OC)cc12` it is 616 s.

The molecule `CCCc1cc(N2CCN(C(=O)C3CCC3)CC2)nc2nnc(C)n12` showed an RP-LC retention time of 614 s.

Molecule `CN(CCc1noc(-c2ccc(C(=O)N3CCCC3)cc2)n1)C(=O)Cc1ccc(Cl)cc1` displayed an RP-LC retention time of 816 s. The figure for `CC(C)OCCCN(CC(=O)N1CCNCC1)C(=O)c1ccc(C(F)(F)F)cc1` is 653 s; for `CC(C)C(=O)Nc1ccc(-n2cnc(C(=O)NCc3cc(F)cc(F)c3)c2)nc1` it is 785 s; for `COc1ccc(-c2noc(C3CCCN3C(=O)Nc3cccc(C)c3)n2)cc1` (stereo not drawn) it is 830 s. The same measure for `O=C(CCc1nnn2c1CN(C(=O)Nc1cccc(F)c1)CC2)NC1CC1`: 664 s; for `Cc1ccc(-n2nc(OCC(=O)Nc3cc(F)ccc3F)ccc2=O)cc1C`: 866 s; for `O=C(NCc1ccco1)Nc1ccccc1Cl`: 766 s. The same measure for `COc1ccc(C)cc1NC(=O)NCC(c1cccnc1)c1cn(C)c2ccccc12` (stereo not drawn): 734 s. Take `COc1ccc(S(=O)(=O)N2C[C@@H]3C[C@H](NC(=O)c4ccccc4)[C@H]2C3)cc1Cl`: the RP-LC retention time is 907 s. The same measure for `O=C(Nc1cccc(F)c1)N1C[C@H]2C[C@H](C1)[C@H]1CCCC(=O)N1C2`: 660 s; for `O=C(CCc1conc1-c1ccccc1)N1CCN(C2CCCCC2)CC1`: 630 s.

In the case of `NC(=O)c1cccc2cn(-c3ccc([C@@H]4CCCNC4)cc3)nc12`, the RP-LC retention time was determined as 630 s. The same measure for `CCS(=O)(=O)N1CC(=O)N(c2ccc(C)c(C)c2)C(C)(C(=O)NC2CCCCCC2)C1` (stereo not drawn): 979 s; for `COc1cccc(-c2cc(=O)c3ccccc3o2)c1N`: 948 s; for `CCc1nnc2nc(N3CCN(C(=O)c4cccs4)CC3)cc(C)n12`: 592 s. In turn, `CCOC(=O)N1CCN(/C=C2\Oc3c(ccc(O)c3C)C2=O)CC1` showed an RP-LC retention time of 637 s. The figure for `Cc1cc(NC(=O)Nc2ccc3c(c2)CCN3S(C)(=O)=O)ccc1Br` is 943 s; for `CC(C)(O)CC[C@@H](O)[C@](C)(O)[C@H]1CC[C@@]2(O)C3=CC(=O)[C@@H]4C[C@@H](O)[C@@H](O)C[C@]4(C)[C@H]3CC[C@]12C` it is 629 s.

Molecule `CC1CCN(c2nn(CC(=O)Nc3ccccc3)c(=O)c3ccccc23)CC1` came in with an RP-LC retention time of 1110 s. `Cc1ccc(NS(=O)(=O)c2cc(-c3[nH]ncc3C(=O)N3CCOCC3)oc2C)cc1C` displayed an RP-LC retention time of 713 s.

Regarding `Nc1cc(C2CCN(C(=O)/C=C/c3ccccc3)CC2)no1`, the RP-LC retention time came out at 724 s. In the case of `Cc1ccc2c(Nc3ccc(Cl)c(F)c3)c(C(=O)N3CCSCC3)cnc2n1`, the RP-LC retention time worked out at 651 s. As for `CCC(=O)NCc1nc2c(n1C)CN(C(=O)c1cccc(Br)c1)CC2`, the RP-LC retention time worked out at 591 s. The figure for `CN(C)C(=O)CN1CCN(c2cc(C(=O)O)c3cc(NC(=O)c4cccc(Cl)c4)ccc3n2)CC1` is 612 s; for `Cc1cc(=O)n(CC(=O)Nc2ccc(C(C)C)cc2)c(N2CCOCC2)n1` it is 774 s. The same measure for `CCCNc1cc(N2CCC(CCC(=O)NCCC(C)C)CC2)ncn1`: 693 s. The figure for `Cc1ccc(NS(=O)(=O)c2cc(-c3[nH]ncc3C(=O)N3CCCC3)oc2C)cc1` is 715 s; for `COc1ccc(C(C)NC(=O)CCc2ccc3c(ccn3C)c2)cc1OC` (stereo not drawn) it is 819 s. Turning to `CC(C)c1ccccc1NC(=O)C1CCN(S(C)(=O)=O)c2ccccc2O1` (stereo not drawn), the RP-LC retention time turned out to be 945 s. The same measure for `Cc1noc(C2CN(C(=O)Nc3cc(F)cc(F)c3)CC23CCOCC3)n1` (stereo not drawn): 726 s.

Molecule `COCCN1C(=O)[C@H]2CN(Cc3cccc(C#N)c3)C[C@H]2C1=O` returned an RP-LC retention time of 607 s. The same measure for `O=C(Nc1cc(Cl)ccc1Cl)C1CN(C(=O)c2ccc(F)c(F)c2)C1`: 862 s; for `O=C(NCCO)c1cccc(-c2cc(Nc3ccc(OC(F)(F)F)cc3)ncn2)c1`: 793 s; for `CCOC(=O)N1CCN(C(=O)CSc2ccc(-n3cccn3)nn2)CC1`: 657 s.

In turn, `CCCNC(=O)Cc1c(C)n(C)c2nc(-c3ccccc3)nn2c1=O` came in with an RP-LC retention time of 660 s. The same measure for `CCc1ccccc1Nc1c(-c2nc(C)no2)cnc2nc(C)ccc12`: 826 s; for `CCOC(=O)c1c(N2C(=O)C3C4C=CC(O4)C3C2=O)sc2c1CCCC2` (stereo not drawn): 872 s; for `CC(C)(C)c1ccc(-c2nc(NCCCN3CCOCC3)c3ccccc3n2)cc1`: 595 s.

The molecule `CN1CCOc2ccc(NC(=O)C3CCN(S(C)(=O)=O)CC3)cc2C1=O` showed an RP-LC retention time of 590 s. The same measure for `Cc1ccc(-c2nnc(C)c(NCCN3CCOCC3)n2)cc1`: 547 s; for `COc1cccc(NC(=O)Nc2ccc3nc(N4CCN(C)CC4)cc(C)c3c2)c1`: 587 s; for `O=C(CN1CCCC1=O)NCc1ccccc1C(F)(F)F`: 680 s. The same measure for `O=C(Nc1ccc(N2CCN(C3CCCCC3)C2=O)nc1)c1ccccc1`: 630 s; for `COc1ccccc1-c1noc(C2CCCN2C(=O)c2ccccn2)n1` (stereo not drawn): 725 s; for `COc1ccc(OC)c(NC(=O)C2Oc3ccccc3NC2=O)c1` (stereo not drawn): 773 s. The same measure for `O=S(=O)(NC1CCCC1)c1ccc(-c2nnc(C3CC3)o2)o1`: 812 s; for `CSc1cccc(NC(=O)C2CCN(S(=O)(=O)c3ccc4[nH]c(=O)ccc4c3)CC2)c1`: 784 s.
